Measured values: US12012403B2, “Aryl sulfonyl compounds as CCR6 inhibitors” (CHEMOCENTRYX, INC., priority 2021, dated 2024)

target: T1, human CCR6 (Homo sapiens, UniProt P51684); assay: Migration (chemotaxis) assay, hCCR6-transfected Ba/F3 cells toward CCL20; format: cell-based; conditions: hCCR6-transfected Ba/F3 cells in human serum; recombinant human CCL20 10 nM; 37° C. 45 minutes; read-out: Potency (IC50 value in the migration assay)
T1 construct: expressed in transfected cells; host or cells: Ba/F3 cells (murine pro-B line), hCCR6-transfected, CMV promoter, sodium butyrate induction
T1 sequence (P51684 1-374): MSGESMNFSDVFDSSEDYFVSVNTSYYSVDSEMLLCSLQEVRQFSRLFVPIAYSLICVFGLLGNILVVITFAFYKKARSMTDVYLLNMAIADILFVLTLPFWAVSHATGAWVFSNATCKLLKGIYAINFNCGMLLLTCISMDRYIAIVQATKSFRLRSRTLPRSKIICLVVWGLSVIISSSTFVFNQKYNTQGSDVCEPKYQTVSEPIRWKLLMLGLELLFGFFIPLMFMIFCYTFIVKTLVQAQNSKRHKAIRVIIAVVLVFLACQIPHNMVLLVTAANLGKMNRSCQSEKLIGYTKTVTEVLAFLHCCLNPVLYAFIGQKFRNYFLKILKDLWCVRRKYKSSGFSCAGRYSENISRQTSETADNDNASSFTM
Description: A chemotaxis assay can be used to determine the efficacy of potential receptor antagonists at blocking the migration mediated through chemokine receptors, such as CCR6. This assay is routinely performed using the ChemoTX® microchamber system with a 5-μm pore-sized polycarbonate membrane. Chemokine receptor-expressing cells are required for such an assay. In this case, Ba/F3 cells (Palacios et al., Nature, 309:126, 1984) transfected with the gene for human CCR6 under control of the CMV promotor were used. To begin such an assay, hCCR6-transfected Ba/F3 cells are first grown for 24 hr in medium supplemented with sodium butyrate, which increases CCR6 transcription via the CMV promotor. The prepared Ba/F3 cells, are collected by centrifugation at 400×g at room temperature, then suspended at 4 million/ml in human serum. The compound being tested is serially diluted from a maximum final concentration of 10 μM (or an equivalent volume of its solvent (DMSO)) and is then added to the cell/serum mixture. Separately, recombinant human CCL20 (MIP-3α/LARC) at its EC50 concentration (10 nM) is placed in the lower wells of the ChemoTX® plate. The 5-μm (pore size) polycarbonate membrane is placed onto the plate, and 20 μL of the cell/compound mixture is transferred onto each well of the membrane. The plates are incubated at 37° C. for 45 minutes, after which the polycarbonate membranes are removed and 5 μl of the DNA-intercalating dye CyQUANT (Invitrogen, Carlsbad, CA) is added to the lower wells. The amount of fluorescence, corresponding to the number of migrated cells, is measured using a Spectrafluor Plus plate reader (TECAN, San Jose, CA).

First: CC(=O)NCC(=O)N1CCN(c2ccc(S(=O)(=O)N3CCC(Nc4ccc(C(F)(F)F)cn4)CC3)cc2)CC1 [Example 1.164]
Second: CS(=O)(=O)N1CCN(c2ccc(S(=O)(=O)N3CCC(Nc4ccc(C(F)(F)F)cn4)CC3)cc2)CC1 [Example 1.200]
The IC50 of the first is higher: 100 to 10000 nM for the first, 5 to 100 nM for the second.

`NC(=O)CC1CN(c2ccc(S(=O)(=O)N3CCC(Nc4ccc(C(F)(F)F)cn4)CC3)cc2)C1` [Example 1.144] and `NC(=O)CC1CCCN(c2ccc(S(=O)(=O)N3CCC(Nc4ccc(C(F)(F)F)cn4)CC3)cc2)C1` (stereo not drawn) [Example 1.138] fall in the same range of IC50: 100 to 10000 nM for the first, 100 to 10000 nM for the second.

First: NC(=O)N1C[C@@H]2CN(c3ccc(S(=O)(=O)N4CCC(Nc5ccc(C(F)(F)F)cn5)CC4)cc3)C[C@@H]2C1 [Example 1.176]
Second: NC(=O)N1CC2(C1)CN(c1ccc(S(=O)(=O)N3CCC(Nc4ccc(C(F)(F)F)cn4)CC3)cc1)C2 [Example 1.154]
The IC50 of the first is higher: 5 to 100 nM for the first, under 5 nM for the second. The second is the more potent here.

Compared with `CC(C)(C)OC(=O)N[C@@H]1CCN(c2ccc(S(=O)(=O)N3CCC(Nc4ccc(C(F)(F)F)cn4)CC3)cc2)C1` [Example 1.212], `O=S(=O)(c1ccc(N2CCC[C@@H](O)C2)cc1)N1CCC(Nc2ccc(C(F)(F)F)cn2)CC1` [Example 1.185] is lower in IC50: 100 to 10000 nM for the first, 5 to 100 nM for the second. The second is the more potent here.

`CC(C)(O)OC(=O)N1CCC2(CC1)C(=O)Nc1ccc(-c3ccc(S(=O)(=O)N4CCC(Nc5ccc(C(F)(F)F)cn5)CC4)cc3)cc12` [Example 1.044] and `CC(=O)N1CCC2(CC1)C(=O)Nc1ccc(-c3ccc(S(=O)(=O)N4CCC(Nc5ccc(C(F)(F)F)cn5)CC4)cc3)cc12` [Example 1.026] fall in the same range of IC50: 5 to 100 nM for the first, 5 to 100 nM for the second.

`NC(=O)N1CCC2(CC1)C(=O)Nc1ccc(-c3ccc(S(=O)(=O)N4CCC(Nc5ccc(C(F)(F)F)cn5)CC4)cc3)cc12` [Example 1.025] and `O=C1Cc2ccc(-c3ccc(S(=O)(=O)N4CCC(Nc5ccc(C(F)(F)F)cn5)CC4)cc3)cc2N1` [Example 1.084] fall in the same range of IC50: 5 to 100 nM for the first, 5 to 100 nM for the second.

`N#CC1CCN(c2ccc(S(=O)(=O)N3CCC(Nc4ccc(C(F)(F)F)cn4)CC3)cc2)CC1` [Example 1.171] and `NCCC1CCN(c2ccc(S(=O)(=O)N3CCC(Nc4ccc(C(F)(F)F)cn4)CC3)cc2)CC1` [Example 1.132] fall in the same range of IC50: 100 to 10000 nM for the first, 100 to 10000 nM for the second.

First: NC(=O)CC1CCN(c2ccc(S(=O)(=O)N3CCC(Nc4ccc(C(F)(F)F)cn4)CC3)cc2)CC1 [Example 1.167]
Second: O=C(CC1CCN(c2ccc(S(=O)(=O)N3CCC(Nc4ccc(C(F)(F)F)cn4)CC3)cc2)CC1)NCCO [Example 1.133]
The IC50 of the first is lower: 5 to 100 nM for the first, 100 to 10000 nM for the second.

First: O=C1CO[C@@H]2CCN(c3ccc(S(=O)(=O)N4CCC(Nc5ccc(C(F)(F)F)cn5)CC4)cc3)C[C@@H]2N1 (racemic) [Example 1.170]
Second: NC(=O)C1CN(c2ccc(S(=O)(=O)N3CCC(Nc4ccc(C(F)(F)F)cn4)CC3)cc2)CCO1 (stereo not drawn) [Example 1.202]
The IC50 of the first is higher: 100 to 10000 nM for the first, 5 to 100 nM for the second. The second is the more potent here.

First: Cc1nc2[nH]ccc2cc1-c1ccc(S(=O)(=O)N2CCC(Nc3ccc(C(F)(F)F)cn3)CC2)cc1 [Example 1.024]
Second: O=S(=O)(c1ccc(-c2cc3cc[nH]c3nc2F)cc1)N1CCC(Nc2ccc(C(F)(F)F)cn2)CC1 [Example 1.042]
The IC50 of the first is lower: under 5 nM for the first, 5 to 100 nM for the second. The first is the more potent here.

`Cc1c(-c2ccc(S(=O)(=O)N3CCC(Nc4ccc(C(F)(F)F)cn4)CC3)cc2)cnc2[nH]ccc12` [Example 1.023] and `O=S(=O)(c1ccc(-c2cnc3[nH]ccc3c2F)cc1)N1CCC(Nc2ccc(C(F)(F)F)cn2)CC1` [Example 1.030] cannot be ordered by IC50: under 5 nM for the first, under 5 nM for the second.

First: O=c1[nH]ncc2cc(-c3ccc(S(=O)(=O)N4CCC(Nc5ccc(C(F)(F)F)cn5)CC4)cc3)ccc12 [Example 1.059]
Second: O=C1NS(=O)(=O)c2cc(-c3ccc(S(=O)(=O)N4CCC(Nc5ccc(C(F)(F)F)cn5)CC4)cc3)ccc21 [Example 1.062]
The IC50 of the first is lower: under 5 nM for the first, 5 to 100 nM for the second.

First: NC(=O)c1ccc(-c2ccc(S(=O)(=O)N3CCC(Nc4ccc(C(F)(F)F)cn4)CC3)cc2)c2cc[nH]c12 [Example 1.061]
Second: N#Cc1c(N)[nH]c2ccc(-c3ccc(S(=O)(=O)N4CCC(Nc5ccc(C(F)(F)F)cn5)CC4)cc3)cc12 [Example 1.099]
The IC50 of the first is higher: 5 to 100 nM for the first, under 5 nM for the second.

First: O=C1NC(=O)N2CCN(c3ccc(S(=O)(=O)N4CCC(Nc5ccc(C(F)(F)F)cn5)CC4)cc3)CC12 (stereo not drawn) [Example 1.177]
Second: O=C1NC(=O)C2(CCN(c3ccc(S(=O)(=O)N4CCC(Nc5ccc(C(F)(F)F)cn5)CC4)cc3)CC2)N1 [Example 1.151]
The IC50 of the first is higher: 5 to 100 nM for the first, under 5 nM for the second.

Compared with `Cc1cc(S(=O)(=O)N2CCC(Nc3ccc(C(F)(F)F)cn3)CC2)ccc1-c1ccc2c(c1)CC(=O)N2` [Example 1.018], `O=C1Cc2cc(-c3ccc(S(=O)(=O)N4CCC(Nc5ccc(C(F)(F)F)cc5)CC4)cc3)ccc2N1` [Example 1.050] is lower in IC50: 100 to 10000 nM for the first, 5 to 100 nM for the second. The second is the more potent here.

First: CC(=O)NCCn1cc(C#N)c2cc(-c3ccc(S(=O)(=O)N4CCC(Nc5ccc(C(F)(F)F)cn5)CC4)cc3)cnc21 [Example 1.011]
Second: O=c1[nH]c2ncc(-c3ccc(S(=O)(=O)N4CCC(Nc5ccc(C(F)(F)F)cn5)CC4)cc3)cc2o1 [Example 1.065]
The IC50 of the first is lower: under 5 nM for the first, 5 to 100 nM for the second.

First: O=S(=O)(c1ccc(N2CCN(c3nnc[nH]3)CC2)cc1)N1CCC(Nc2ccc(C(F)(F)F)cn2)CC1 [Example 1.174]
Second: O=S(=O)(c1ccc(N2CCCCC2)cc1)N1CCC(Nc2ccc(C(F)(F)F)cn2)CC1 [Example 1.235]
The IC50 of the first is higher: 100 to 10000 nM for the first, 5 to 100 nM for the second.

`O=S(=O)(c1ccc(N2CCC(Nc3ccccc3)CC2)cc1)N1CCC(Nc2ccc(C(F)(F)F)cn2)CC1` [Example 1.220] and `O=S(=O)(c1ccc(N2CCC(c3ccn[nH]3)CC2)cc1)N1CCC(Nc2ccc(C(F)(F)F)cn2)CC1` [Example 1.222] fall in the same range of IC50: 5 to 100 nM for the first, 5 to 100 nM for the second.

`CN1CCC2(CCN(c3ccc(S(=O)(=O)N4CCC(Nc5ccc(C(F)(F)F)cn5)CC4)cc3)CC2)C1=O` [Example 1.157] and `O=C1CC2(CCN(c3ccc(S(=O)(=O)N4CCC(Nc5ccc(C(F)(F)F)cn5)CC4)cc3)CC2)C(=O)N1` [Example 1.149] fall in the same range of IC50: 5 to 100 nM for the first, 5 to 100 nM for the second.

First: N#Cc1c(N)[nH]c2ccc(-c3ccc(S(=O)(=O)[C@H]4CC[C@H](Nc5ccc(C(F)(F)F)cn5)CC4)cc3)cc12 [Example 1.070]
Second: CN(C)c1n[nH]c2ccc(-c3ccc(S(=O)(=O)N4CCC(Nc5ccc(C(F)(F)F)cn5)CC4)cc3)cc12 [Example 1.069]
The IC50 of the first is lower: under 5 nM for the first, 5 to 100 nM for the second. The first is the more potent here.

Compared with `O=C1NC2(CCN(c3ccc(S(=O)(=O)N4CCC(Nc5ccc(C(F)(F)F)cn5)CC4)cc3)CC2)CO1` [Example 1.148], `O=S1(=O)CCN(c2ccc(S(=O)(=O)N3CCC(Nc4ccc(C(F)(F)F)cn4)CC3)cc2)CC1` [Example 1.231] is higher in IC50: under 5 nM for the first, 100 to 10000 nM for the second.

`O=S(=O)(c1ccc(N2[C@@H]3CC[C@H]2C[C@@H](O)C3)cc1)N1CCC(Nc2ccc(C(F)(F)F)cn2)CC1` [Example 1.180] and `O=S(=O)(c1ccc(N2CC3(CC(O)C3)C2)cc1)N1CCC(Nc2ccc(C(F)(F)F)cn2)CC1` [Example 1.187] fall in the same range of IC50: 5 to 100 nM for the first, 5 to 100 nM for the second.

First: Nc1nnc2ccc(-c3ccc(S(=O)(=O)N4CCC(Nc5ccc(C(F)(F)F)cn5)CC4)cc3)cn12 [Example 1.016]
Second: O=C1NCCc2nc(-c3ccc(S(=O)(=O)N4CCC(Nc5ccc(C(F)(F)F)cn5)CC4)cc3)sc21 [Example 1.048]
The IC50 of the first is lower: under 5 nM for the first, 5 to 100 nM for the second. The first is the more potent here.

First: O=S(=O)(c1ccc(N2CCC(c3cnc[nH]3)CC2)cc1)N1CCC(Nc2ccc(C(F)(F)F)cn2)CC1 [Example 1.130]
Second: O=C1Nc2ncc(-c3ccc(S(=O)(=O)N4CCC(Nc5ccc(C(F)(F)F)cn5)CC4)cc3)cc2C12CCOCC2 [Example 1.064]
The IC50 of the first is higher: 100 to 10000 nM for the first, under 5 nM for the second. The second is the more potent here.
